Results as given in the supplement of paper PMC11208160.

Test: recombinant UMI read abundance after kanamycin selection (control-corrected) (log10(CPM+1)); higher = more efficient recombination; extreme values may be limits of the assay; sequences stand for … in AGTGCAGAGAAAATCGGCCAGTTTTCTCTGCCTGCAGTCCGCATGCCGTGGGACCCCTTGGGTTCTAACCTGTTGCCTAGATTTATGCAGCGGACTGCCTTTCTCCCAAAGTGATAAACCGG…AGGTTGGTTTCACT; site = the 11-nt donor
Procedure, shortened: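 After plating on IPTG (0.07 mM) plus kanamycin, or unselected, in two replicates, recombinant UMIs were PCR-amplified across the donor–target junction and sequenced. The cells were Escherichia coli co-electroporated with a UMI-tagged donor and donor-binding-loop pair library and a target plasmid with a fixed target and T7-inducible IS621 bridge recombinase. Values are log10(CPM+1), with CPM averaged over replicates and scaled by control-derived factors.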
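Further: IS621 bridge recombinase in Escherichia coli cells against a fixed T5 target plasmid.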

Sequence	recombinant UMI read abundance (log10)
ATTGAGACATGGACCGGTTTTCCCGGTAATCCGTATTTGGC (site ATTGAGACTCC)	0.38
ATTGAGACATGGACCGGTTTTCCCGGTAATCCGTATTTGGC (site ATTGAGACTGC)	1.83
ATTGAGACATGGACCGGTTTTCCCGGTAATCCGTATTTGGC (site ATTGAGACTTC)	0.679
ATTGAGACATGGACCGGTTTTCCCGGTAATCCGTATTTGTT (site ATTGAGACTAA)	1.71
ATTGAGACATGGACCGGTTTTCCCGGTAATCCGTATTTGTT (site ATTGAGACTAC)	0.013
ATTGAGACATGGACCGGTTTTCCCGGTAATCCGTATTTGTT (site ATTGAGACTAG)	2.02
ATTGAGACATGGACCGGTTTTCCCGGTAATCCGTATTTGTT (site ATTGAGACTAT)	0.811
ATTGAGCCATGGACCGGTTTTCCCGGTAATCCGTATTTGGT (site ATTGAGACTAC)	0.00491
ATTGAGCCATGGACCGGTTTTCCCGGTAATCCGTATTTGGT (site ATTGAGCCTAC)	0.00384
ATTGAGCCATGGACCGGTTTTCCCGGTAATCCGTATTTGGT (site ATTGAGGCTAC)	0.0212
ATTGAGCCATGGACCGGTTTTCCCGGTAATCCGTATTTGGT (site ATTGAGTCTAC)	0.633
ATTGAGGCATGGACCGGTTTTCCCGGTAATCCGTATTTGGT (site ATTGAGACTAC)	0.413
ATTGAGGCATGGACCGGTTTTCCCGGTAATCCGTATTTGGT (site ATTGAGCCTAC)	0.486
ATTGAGGCATGGACCGGTTTTCCCGGTAATCCGTATTTGGT (site ATTGAGGCTAC)	0.927
ATTGAGGCATGGACCGGTTTTCCCGGTAATCCGTATTTGGT (site ATTGAGTCTAC)	0.801
ATTGCAGCATGGACCGGTTTTCCCGGTAATCCGTATTTGAG (site ATTGCAGCTCT)	1.03
ATTGCCGCATGGACCGGTTTTCCCGGTAATCCGTATTTGTC (site ATTGCCGCTGA)	0.656
ATTGCCTCATGGACCGGTTTTCCCGGTAATCCGTATTTGCT (site ATTGCCTCTAG)	2.03
ATTGCGACATGGACCGGTTTTCCCGGTAATCCGTATTTGGT (site ATTGAGACTAC)	0.0594

Sequence	recombinant UMI read abundance (log10)
ATTGCGACATGGACCGGTTTTCCCGGTAATCCGTATTTGGT (site ATTGCGACTAC)	0.639
ATTGCGACATGGACCGGTTTTCCCGGTAATCCGTATTTGGT (site ATTGGGACTAC)	0.456
ATTGCGACATGGACCGGTTTTCCCGGTAATCCGTATTTGGT (site ATTGTGACTAC)	0.225
ATTGGGACATGGACCGGTTTTCCCGGTAATCCGTATTTGGT (site ATTGAGACTAC)	0.413
ATTGGGACATGGACCGGTTTTCCCGGTAATCCGTATTTGGT (site ATTGCGACTAC)	0.021
ATTGGGACATGGACCGGTTTTCCCGGTAATCCGTATTTGGT (site ATTGGGACTAC)	0.896
ATTGGGACATGGACCGGTTTTCCCGGTAATCCGTATTTGGT (site ATTGTGACTAC)	0.0209
ATTGTGCCATGGACCGGTTTTCCCGGTAATCCGTATTTGAC (site ATTGTGCCTGT)	0.819
ATTGTGCCATGGACCGGTTTTCCCGGTAATCCGTATTTGCA (site ATTGTGCCTTG)	0.682
ATTGTGCCATGGACCGGTTTTCCCGGTAATCCGTATTTGTG (site ATTGTGCCTCA)	0.054
ATTGTGTCATGGACCGGTTTTCCCGGTAATCCGTATTTGAC (site AATGTGTCTGT)	0
ATTGTGTCATGGACCGGTTTTCCCGGTAATCCGTATTTGAC (site ACTGTGTCTGT)	1.41
ATTGTGTCATGGACCGGTTTTCCCGGTAATCCGTATTTGAC (site AGTGTGTCTGT)	0
ATTGTGTCATGGACCGGTTTTCCCGGTAATCCGTATTTGAC (site ATTGTGTCTGT)	1.6
ATTGTTACATGGACCGGTTTTCCCGGTAATCCGTATTTGTG (site ATTGTTACTCA)	0.634
ATTTATACATGGACCGGTTTTCCCGGTAATCCGTATTTGAC (site ATATATACTGT)	0.718
ATTTATACATGGACCGGTTTTCCCGGTAATCCGTATTTGAC (site ATCTATACTGT)	1.22
ATTTATACATGGACCGGTTTTCCCGGTAATCCGTATTTGAC (site ATGTATACTGT)	1.21
ATTTATACATGGACCGGTTTTCCCGGTAATCCGTATTTGAC (site ATTTATACTGT)	0.544

Sequence	recombinant UMI read abundance (log10)
ATTTCTCCATGGACCGGTTTTCCCGGTAATCCGTATTTGAC (site ATTTCTCCTGT)	0
CAAAATGCATGGACCGGTTTTCCCGGTAATCCGTATTTGAC (site CAAAATGCTGT)	2.14
CAAACATCATGGACCGGTTTTCCCGGTAATCCGTATTTGCT (site CAAACATCTAG)	1.94
CAAACATCATGGACCGGTTTTCCCGGTAATCCGTATTTGCT (site CGATCATCTAG)	0
CAAACGCCATGGACCGGTTTTCCCGGTAATCCGTATTTGTG (site CAAACGCCTCA)	0.56
CAAACGCCATGGACCGGTTTTCCCGGTAATCCGTATTTGTG (site CAACCGCCTCA)	0.033
CAAACGCCATGGACCGGTTTTCCCGGTAATCCGTATTTGTG (site CAAGCGCCTCA)	0.0253
CAAACGCCATGGACCGGTTTTCCCGGTAATCCGTATTTGTG (site CAATCGCCTCA)	0.0256
CAAATAACATGGACCGGTTTTCCCGGTAATCCGTATTTGCA (site CAAATAACTTG)	1.1
CAAATCCCATGGACCGGTTTTCCCGGTAATCCGTATTTGCT (site CAAATCCCTAG)	0
CAAATCCCATGGACCGGTTTTCCCGGTAATCCGTATTTGCT (site CAACTCCCTAG)	0.00602
CAAATCCCATGGACCGGTTTTCCCGGTAATCCGTATTTGCT (site CAAGTCCCTAG)	0
CAAATCCCATGGACCGGTTTTCCCGGTAATCCGTATTTGCT (site CAATTCCCTAG)	0
CAAATGGCATGGACCGGTTTTCCCGGTAATCCGTATTTGCA (site CAAATGGCTTG)	2.04
CAACAACCATGGACCGGTTTTCCCGGTAATCCGTATTTGTC (site CAACAACCTGA)	0.474
CAACAGGCATGGACCGGTTTTCCCGGTAATCCGTATTTGTA (site CAACAGGCTTA)	1.18
CAACATACATGGACCGGTTTTCCCGGTAATCCGTATTTGTG (site CAACATACTCA)	1.83
CAACCGCCATGGACCGGTTTTCCCGGTAATCCGTATTTGTG (site CAAACGCCTCA)	0.00379
CAACCGCCATGGACCGGTTTTCCCGGTAATCCGTATTTGTG (site CAACCGCCTCA)	0.00924
